Experimental data from patent US12180226B2, “Spirotricycle RIPK1 inhibitors and methods of uses thereof” (Merck Sharp & Dohme LLC, priority 2021, dated 2024).
Where a name gives a salt, the structure may show the parent alone.

Target: RIPK1 (recombinant GST-RIPK1 kinase domain, residues 1-327) (Homo sapiens (Human), UniProt Q13546)
Experiment: RIPK1-ADP-Glo Enzymatic Assay
Format: biochemical
Settings: ADP-Glo; 25 nM GST-RIPK1, 300 μM ATP; assay lower limit ~25 nM; read-out: RIPK1 V0 Ec50
How it was run: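 Luminescent ADP-Glo readout of ATP-to-ADP conversion. Conditions: 25 nM enzyme, 300 μM ATP, 3 μM dephospho-MBP, pH 7.3 HEPES buffer with 20 mM MgCl2; 30 min compound pre-incubation, 150 min reaction. EC50 via four-parameter sigmoidal regression; assay floor ~25 nM.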

RIPK1 (recombinant GST-RIPK1 kinase domain, residues 1-327), sequence (Q13546 1-327): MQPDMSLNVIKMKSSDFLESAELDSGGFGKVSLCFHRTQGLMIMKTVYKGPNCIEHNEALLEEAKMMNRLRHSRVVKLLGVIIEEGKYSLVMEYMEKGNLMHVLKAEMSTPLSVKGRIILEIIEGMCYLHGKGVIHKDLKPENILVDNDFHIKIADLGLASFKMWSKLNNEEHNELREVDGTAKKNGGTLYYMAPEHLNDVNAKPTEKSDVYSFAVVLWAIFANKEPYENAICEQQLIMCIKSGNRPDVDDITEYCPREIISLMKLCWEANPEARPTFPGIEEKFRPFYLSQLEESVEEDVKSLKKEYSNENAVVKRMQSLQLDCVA

Row | SMILES | EC50
1 | CC1CN(c2cc(C#N)ncn2)CCC12O[C@@H]1CC[C@@H](c3ccccc3)N1C2=O (stereo partly drawn) [Example 4.234, 6-[(4R,5′S,7a′R)-3-methyl-3′-oxo-5′-phenyltetrahydro-1H,3′H-spiro[piperidine-4,2′-pyrrolo[2,1-b] [1,3]oxazol]-1-yl]pyrimidine-4-carbonitrile] | 56.5 nM
2 | O=C(c1ccn2ncnc2n1)N1CCC2(CC1)O[C@@H]1CC[C@@H](c3cc(F)cc(F)c3)N1C2=O [Example 6.87, (5′S,7a′R)-5′-(3,5-difluorophenyl)-1-([1,2,4]triazolo[1,5-a]pyrimidine-5-carbonyl)tetrahydro-3′H-spiro[piperidine-4,2′-pyrrolo[2,1-b] [1,3]oxazol]-3′-one] | 43.8 nM
3 | COc1cccc(C(=O)N2CCC3(CC2)O[C@@H]2CC[C@@H](c4cc(F)cc(F)c4)N2C3=O)c1F [Example 6.7, (5′S,7a′R)-5′-(3,5-difluorophenyl)-1-(2-fluoro-3-methoxy-benzene-1-carbonyl) tetrahydro-3′H-spiro [piperidine-4,2′-pyrrolo[2,1-b][1,3]oxazol]-3′-one] | < 25 nM
4 | Cc1cnc(C(=O)N2CCC3(CC2)O[C@@H]2CC[C@@H](c4cc(F)cc(F)c4)N2C3=O)cn1 [Example 6.3, (5′S,7a′R)-5′-(3,5-difluorophenyl)-1-(5-methylpyrazine-2-carbonyl)tetrahydro-3′H-spiro[piperidine-4,2′-pyrrolo[2,1-b] [1,3]oxazol]-3′-one] | 60.1 nM
5 | O=C1N2[C@@H](CC[C@H]2c2ccccc2)OC12CCN(c1cc(CF)ncn1)CC2 [Example 4.203, (5′S,7a′R)-1-[6-(fluoromethyl)pyrimidin-4-yl]-5′-phenyltetrahydro-3′H-spiro[piperidine-4,2′-pyrrolo[2,1-b] [1,3]oxazol]-3′-one] | 48 nM
6 | O=C(c1ccc(Br)cn1)N1CCC2(CC1)O[C@@H]1CC[C@@H](c3cc(F)cc(F)c3)N1C2=O [Example 6.100, (5′S,7a′R)-1-(5-bromo-pyridine-2-carbonyl)-5′-(3,5-difluorophen-yl)tetrahydro-3′H-spiro[piperidine-4,2′-pyrrolo[2,1-b][1,3]-oxazol]-3′-one] | 66.7 nM
7 | O=C(c1cc2n(n1)CCCC2)N1CCC2(CC1)O[C@@H]1CC[C@@H](c3cc(F)cc(F)c3)N1C2=O [Example 5.75, (5′S,7a′R)-5′-(3,5-difluoro-phenyl)-1-(4,5,6,7-tetra-hydropyrazolo[1,5-a]-pyridine-2-carbonyl)tetra-hydro-3′H-spiro[piperi-dine-4,2′-pyrrolo[2,1-b]oxazol]-3′-one] | 524 nM
8 | O=C1N2[C@@H](CC[C@H]2c2ccccc2)OC12CN(c1ncnc3ccnn13)C2 [Example 4.137, (5′S,7a′R)-5′-phenyl-1-(pyrazolo[1,5-a] [1,3,5]triazin-4-yl)tetrahydro-3′H-spiro[azetidine-3,2′-pyrrolo[2,1-b] [1,3]oxazol]-3′-one] | 235 nM
9 | O=C1N2[C@@H](CC[C@H]2c2cc(F)cc(F)c2)OC12CCN(c1ncc(C3CC3)cn1)CC2 [Example 4.56, (5′S,7a′R)-1-(5-cyclopropylpyrimidin-2-yl)-5′-(3,5-difluorophenyl)tetrahydro-3′H-spiro[piperidine-4,2′-pyrrolo[2,1-b] [1,3]oxazol]-3′-one] | 565 nM
10 | COc1cccc([C@@H]2CC[C@H]3OC4(CCN(C(=O)c5ccccc5)CC4)C(=O)N32)n1 [Example 17.5, (5′S,7a′R)-1-benzoyl-5′-(6-methoxypyridin-2-yl)tetrahydro-3′H-spiro[piperidine-4,2′-pyrrolo[2,1-b]oxazol]-3′-one, TFA salt] | 344 nM
11 | COc1ccc([C@@H]2CC[C@H]3OC4(CCN(C(=O)c5ccccc5)CC4)C(=O)N32)cc1 [Example 17.8, (5′S,7a′R)-1-benzoyl-5′-(4-methoxyphenyl)tetrahydro-3′H-spiro[piperidine-4,2′-pyrrolo[2,1-b]oxazol]-3′-one] | 49 nM
12 | N#Cc1cnc(N2CCC3(CC2)O[C@@H]2CC[C@@H](c4cc(F)cc(F)c4)N2C3=O)cc1F [Example 4.75, 6-[(5′S,7a′R)-5′-(3,5-difluorophenyl)-3′-oxotetrahydro-1H,3′H-spiro[piperidine-4,2′-pyrrolo[2,1-b] [1,3]oxazol]-1-yl]-4-fluoropyridine-3-carbonitrile] | < 25 nM
13 | O=C(c1cc(F)cc(F)c1)N1CCC2(CC1)O[C@@H]1CC[C@@H](c3cc(F)cc(F)c3)N1C2=O [Example 6.48, (5′S,7a′R)-1-(3,5-difluorobenzene-1-carbonyl)-5′-(3,5-difluorophenyl)tetra-hydro-3′H-spiro [piperidine-4,2′-pyrrolo[2,1-b][1,3]oxazol]-3′-one] | 34.2 nM
14 | O=C(c1ccccc1)N1CC2(C1)O[C@@H]1CC[C@@H](c3ccccc3F)N1C2=O [Example 1.19, (5′S,7a′R)-1-benzoyl-5′-(2-fluorophenyl)tetrahydro-3′H-spiro[azetidine-3,2′-pyrrolo[2,1-b]oxazol]-3′-one] | 82.9 nM
15 | O=C1N2[C@@H](CC[C@H]2c2cncc(F)c2)OC12CCN(c1ccnc3c(F)cnn13)CC2 [Example 4.84, (5′S,7a′R)-1-(3-fluoropyrazolo[1,5-a]pyrimidin-7-yl)-5′-(5-fluoropyridin-3-yl)tetrahydro-3′H-spiro[piperidine-4,2′-pyrrolo[2,1-b]oxazol]-3′-one, TFA salt] | 29.3 nM
16 | N#CCc1nc(C(=O)N2CCC3(CC2)O[C@@H]2CC[C@@H](c4cc(F)cc(F)c4)N2C3=O)cs1 [Example 6.29, {4-[(5′S,7a′R)-5′-(3,5-difluorophenyl)-3-oxo-tetrahydro-1H,3′H-spiro[piperidine-4,2′-pyrrolo[2,1-b][1,3]oxazole]-1-carbonyl]-1,3-thiazol-2-yl} acetonitrile] | 413 nM
17 | O=C1N2[C@@H](CC[C@H]2c2ccccc2)OC12CCN(c1ncccc1C(F)F)CC2 [Example 11.24, (5′S,7a′R)-1-[3-(difluoromethyl)pyridin-2-yl]-5′-phenyltetrahydro-3′H-spiro[piperidine-4,2′-pyrrolo[2,1-b][1,3]oxazol]-3′-one] | 366 nM
18 | NC(=O)c1ccc(N2CCC3(CC2)O[C@@H]2CC[C@@H](c4ccccc4)N2C3=O)n2ncnc12 [Example 4.212, 5-[(5′S,7a′R)-3′-oxo-5′-phenyltetrahydro-1H,3′H-spiro[piperidine-4,2′-pyrrolo[2,1-b] [1,3]oxazol]-1-yl] [1,2,4]triazolo[1,5-a] pyridine-8-carboxamide] | < 25 nM
19 | O=C(c1cccc(N2CCCC2)n1)N1CCC2(CC1)O[C@@H]1CC[C@@H](c3cc(F)cc(F)c3)N1C2=O [Example 6.96, (5′S,7a′R)-5′-(3,5-difluorophenyl)-1-[6-(pyrrolidin-1-yl)pyri-dine-2-carbonyl]tetra-hydro-3′H-spiro[piperi-dine-4,2′-pyrrolo[2,1-b][1,3]oxazol]-3′-one] | 31.6 nM
20 | O=C1N2[C@@H](CC[C@H]2c2ccccc2)OC12CCN(c1ncnc3c1COC3)CC2 [Example 4.222, (5′S,7a′R)-1-(5,7-dihydrofuro[3,4-d]pyrimidin-4-yl)-5′-phenyltetrahydro-3′H-spiro[piperidine-4,2′-pyrrolo[2,1-b] [1,3]oxazol]-3′-one] | 57.3 nM
21 | N#Cc1cc(C(=O)N2CCC3(CC2)O[C@@H]2CC[C@@H](c4cc(F)cc(F)c4)N2C3=O)ccc1F [Example 5.14, 5-((5′S,7a′R)-5′-(3,5-difluorophenyl)-3′-oxo-tetrahydro-3′H-spiro [piperidine-4,2′-pyrrolo-[2,1-b]oxazole]-1-carbon-yl)-2-fluorobenzonitrile] | < 25 nM
22 | O=C1N2[C@@H](CC[C@H]2c2ccccc2)OC12CCN(c1cccn3nccc13)CC2 [Example 4.150, (5′S,7a′R)-5′-phenyl-1-(pyrazolo[1,5-a]pyridin-4-yl)tetrahydro-3′H-spiro[piperidine-4,2′-pyrrolo[2,1-b] [1,3]oxazol]-3′-one] | 34.4 nM
23 | N#Cc1ccc(N2CCC3(CC2)O[C@@H]2CC[C@@H](c4cccc(F)c4)N2C3=O)n2ncnc12 [Example 4.259, 5-[(5′S,7a′R)-5′-(3-fluorophenyl)-3′-oxotetrahydro-1H,3′H-spiro[piperidine-4,2′-pyrrolo[2,1-b] [1,3]oxazol]-1-yl][1,2,4]triazolo[1,5-a] pyridine-8-carbonitrile] | < 25 nM
24 | Cc1ccc(C(=O)N2CCC3(CC2)O[C@@H]2CC[C@@H](c4cc(F)cc(F)c4)N2C3=O)nc1C [Example 6.93, (5′S,7a′R)-5′-(3,5-difluorophenyl)-1-(5,6-dimethylpyridine-2-carbonyl)tetrahydro-3′H-spiro[piperidine-4,2′-pyrrolo[2,1-b] [1,3]oxazol]-3′-one] | 192 nM
25 | O=C(c1ccc(F)c(F)n1)N1CCC2(CC1)O[C@@H]1CC[C@@H](c3cc(F)cc(F)c3)N1C2=O [Example 6.94, (5′S,7a′R)-5′-(3,5-difluorophenyl)-1-(5,6-difluoropyridine-2-carbonyl)tetrahydro-3′H-spiro[piperidine-4,2′-pyrrolo[2,1-b] [1,3]oxazol]-3′-one] | 30.5 nM
26 | NC(=O)c1ccc(N2CCC3(CC2)O[C@@H]2CC[C@@H](c4ccccc4)N2C3=O)nc1Cl [Example 4.201, 2-chloro-6-[(5′S,7a′R)-3′-oxo-5′-phenyltetrahydro-1H,3′H-spiro[piperidine-4,2′-pyrrolo[2,1-b] [1,3]oxazol]-1-yl]pyridine-3-carboxamide] | < 25 nM
27 | CC(=O)c1ccc(N2CCC3(CC2)O[C@@H]2CC[C@@H](c4ccccc4)N2C3=O)n2ncnc12 [Example 4.270, (5′S,7a′R)-1-(8-acetyl[1,2,4]triazolo[1,5-a]pyridin-5-yl)-5′-phenyltetrahydro-3′H-spiro[piperidine-4,2′-pyrrolo[2,1-b] [1,3]oxazol]-3′-one] | < 25 nM
